The IC50 is the concentration at which inhibition is half-maximal.

Experiment [1] concerns the target Tyrosine-protein kinase SYK (Homo sapiens, UniProt P43405). Put plainly: Syk Kinase Activity Inhibitiory Experiment: Measure of SYK protein kinase activity was carried out by using the Caliper mobility shift assay. The compound was dissolved with DMSO and diluted with kinase buffer (20 mM HEPES pH 7.5, 0.01% Triton X-100, 5 mM MgCl2, 1 mM MnCl2, 2 mM DTT), and 5 μl of 5 times the final concentration of the compounds (10% DMSO) were added to 384 well plate. 10 μl of 2.5 fold enzyme (with SYK) solution was added and incubated at room temperature for 10 minutes, then 10 of 2.5 fold substrate (Peptide FAM-P22) and ATP) solution was added. The mixture was incubated for 30 minutes under 28° C., and 25 μl of stop buffer (100 mM HEPES pH 7.5, 0.015% Brij-35, 0.2% Coating Reagent #3, 50 mM EDTA) was added to terminate the reaction. Conversion rate data was read by Caliper EZ Reader II (Caliper Life Sciences). Conversion rate was converted to inhibition rate data (% inhibition rate=(max−conversion rate)/(max−min)*100). The max refers to the conversion rate of the DMSO control, and min refers to the conversion rate of the enzyme-free control. The curve was drawn with the compound concentration and inhibition rate as the horizontal and vertical coordinates, and the curve was fitted with the XLFit excel add-in version 4.3.1 Software, and IC50 was calculated.

The target of the next experiment is Histone deacetylase 1 (Homo sapiens, UniProt Q13547). As to the kind of experiment: HDAC-1 and HDAC-6 Activity Inhibition Experiment: HDAC activity was measured by the Synergy MX Multi-Function Microplate Reader. The compounds were dissolved with DMSO, and transferred to a 384 well test plate using an Echo non-contact nanoscale sonic pipetting system. 15 μl of enzyme (HDAC1/HDAC6, respectively) solvent was added, and incubated at room temperature for 15 minutes, then 10 μl of substrate (trypsin and Ac-peptide) solution was added. Fluorescence intensity signal was read directly on Synergy MX (fluorescence excitation 355 nm, emission fluorescence 460 nm) after cultivated at room temperature for 60 minutes. Fluorescence intensity signal was convented into inhibition rate data (% inhibition rate=(max−fluorescence intensity)/(max−min)*100). The max refers to the fluorescence intensity of the DMSO control, and min refers to the fluorescence intensity of the enzyme-free control. The curve was drawn with the compound concentration and inhibition rate as the horizontal and vertical coordinates, and the curve was fitted with the GraphPad Prism V5.0 Software, and IC50 was calculated.

Some results are limits rather than exact numbers.

Sequence of Histone deacetylase 1 (Q13547 whole entry): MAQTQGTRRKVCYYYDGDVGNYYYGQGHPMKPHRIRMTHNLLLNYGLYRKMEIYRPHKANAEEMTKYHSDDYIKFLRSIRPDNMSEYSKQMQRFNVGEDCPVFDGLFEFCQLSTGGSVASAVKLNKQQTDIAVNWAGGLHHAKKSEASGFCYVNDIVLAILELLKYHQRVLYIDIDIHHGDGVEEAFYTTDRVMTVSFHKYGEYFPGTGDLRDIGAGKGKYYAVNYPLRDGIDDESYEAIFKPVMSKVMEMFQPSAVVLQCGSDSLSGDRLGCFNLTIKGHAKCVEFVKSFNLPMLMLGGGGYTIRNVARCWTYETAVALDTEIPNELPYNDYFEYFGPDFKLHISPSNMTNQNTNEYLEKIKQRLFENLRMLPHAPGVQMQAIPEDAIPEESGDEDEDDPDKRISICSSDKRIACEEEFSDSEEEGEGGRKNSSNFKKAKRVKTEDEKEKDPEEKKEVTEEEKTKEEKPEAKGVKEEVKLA

With `O=C(CCCCCCNC(=O)c1cccc(-c2cn3ccnc3c(Nc3ccc(N4CCOCC4)cc3)n2)c1)NO`, the IC50 in experiment [1] is below 500 nM; on Histone deacetylase 1, below 100 nM.
